Measurements published in paper PMC10914731, “Homo-BacPROTAC-induced degradation of ClpC1 as a strategy against drug-resistant mycobacteria” (Nature Communications, 2024).
In brackets after ≈: the same amount, converted by molar mass. Several values for one entry are separate records, joined by “and”; a condition that tells them apart may be missing. Identical values can stand only once. Like-named read-outs stand apart in the source and are kept apart here.

Experiments:
Mtb (moxR) FNDR-M1 = test: microbe, parasite or virus in culture; type: cell-based
Mtb # 11291 = test: microbe, parasite or virus in culture; type: cell-based; conditions: for MIC: read-out: MIC Mtb # 11291
[1] = system: Mtb (katG del) ATCC 35822; test: microbe, parasite or virus in culture; type: cell-based
Mtb # 8673 = test: microbe, parasite or virus in culture; type: cell-based
[2] = system: M. tuberculosis H37Rv (ATCC 27294); test: microbe, parasite or virus in culture; type: cell-based
[3] = type: in vitro ADME, Human; conditions: human, pH 7.4
Msm 607 = test: microbe, parasite or virus in culture; type: cell-based
[4] = target: His6-tagged ClpC1-NTD substrate, M. smegmatis ClpC1P1P2 (UniProt A0R574+P9WPC9); test: biochemical; type: biochemical; conditions: Msm
His6-tagged ClpC1-NTD substrate, M. smegmatis ClpC1P1P2, sequence (P9WPC9 1-156, looked up, natural form): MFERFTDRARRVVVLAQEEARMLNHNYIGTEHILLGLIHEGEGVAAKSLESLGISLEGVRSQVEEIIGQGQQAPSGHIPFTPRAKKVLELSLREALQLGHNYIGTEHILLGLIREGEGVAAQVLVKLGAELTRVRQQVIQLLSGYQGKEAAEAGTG
His6-tagged ClpC1-NTD substrate, M. smegmatis ClpC1P1P2, sequence (A0R574 whole entry): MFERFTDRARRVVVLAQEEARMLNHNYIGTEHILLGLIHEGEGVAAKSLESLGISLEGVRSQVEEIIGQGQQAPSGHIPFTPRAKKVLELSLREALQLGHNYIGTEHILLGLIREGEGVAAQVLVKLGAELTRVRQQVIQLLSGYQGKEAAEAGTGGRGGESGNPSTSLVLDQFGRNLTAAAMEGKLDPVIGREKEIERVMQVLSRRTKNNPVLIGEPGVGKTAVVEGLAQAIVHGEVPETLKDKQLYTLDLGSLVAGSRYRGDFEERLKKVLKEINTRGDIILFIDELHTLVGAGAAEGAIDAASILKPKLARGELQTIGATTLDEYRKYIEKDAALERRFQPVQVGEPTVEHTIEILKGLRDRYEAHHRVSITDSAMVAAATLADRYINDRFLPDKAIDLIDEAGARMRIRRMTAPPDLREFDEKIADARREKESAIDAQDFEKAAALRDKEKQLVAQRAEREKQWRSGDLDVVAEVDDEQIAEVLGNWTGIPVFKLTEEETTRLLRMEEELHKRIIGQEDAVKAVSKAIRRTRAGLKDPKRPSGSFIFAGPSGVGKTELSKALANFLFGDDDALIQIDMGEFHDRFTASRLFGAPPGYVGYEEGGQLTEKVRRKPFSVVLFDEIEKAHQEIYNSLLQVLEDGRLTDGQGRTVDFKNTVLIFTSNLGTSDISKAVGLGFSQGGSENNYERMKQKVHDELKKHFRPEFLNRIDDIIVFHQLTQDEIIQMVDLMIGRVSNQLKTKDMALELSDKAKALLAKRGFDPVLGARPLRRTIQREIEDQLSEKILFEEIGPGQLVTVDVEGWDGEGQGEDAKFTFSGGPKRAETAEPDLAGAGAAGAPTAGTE

[5] = type: in vitro ADME, Rat; conditions: rat, pH 7.4
[6] = type: in vitro ADME, Rat
Summary of the method: (§1)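 1 µmol/l cpd + 0.5 mg/ml microsomes, Tris-HCl 100 mM pH 7.5 / MgCl2 6.5 mM / NADPH 1 mM, 37 °C. Timed acetonitrile quench, spin, supernatant by HPLC-MS/MS. t1/2 from first-order decay → clearance %Qh, well-stirred model.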

[7] = target: ClpC1-NTD substrate, M. tuberculosis ClpC1P1P2 (Mycobacterium tuberculosis, UniProt P9WPC9); test: biochemical; type: biochemical; conditions: Mtb
ClpC1-NTD substrate, M. tuberculosis ClpC1P1P2, sequence (P9WPC5 whole entry): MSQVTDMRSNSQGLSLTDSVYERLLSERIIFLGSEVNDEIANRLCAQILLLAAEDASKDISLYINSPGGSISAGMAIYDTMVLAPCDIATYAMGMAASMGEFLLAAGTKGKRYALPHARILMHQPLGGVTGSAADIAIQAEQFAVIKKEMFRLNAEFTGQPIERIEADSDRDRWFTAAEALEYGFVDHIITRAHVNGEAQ
ClpC1-NTD substrate, M. tuberculosis ClpC1P1P2, sequence (P9WPC9 whole entry): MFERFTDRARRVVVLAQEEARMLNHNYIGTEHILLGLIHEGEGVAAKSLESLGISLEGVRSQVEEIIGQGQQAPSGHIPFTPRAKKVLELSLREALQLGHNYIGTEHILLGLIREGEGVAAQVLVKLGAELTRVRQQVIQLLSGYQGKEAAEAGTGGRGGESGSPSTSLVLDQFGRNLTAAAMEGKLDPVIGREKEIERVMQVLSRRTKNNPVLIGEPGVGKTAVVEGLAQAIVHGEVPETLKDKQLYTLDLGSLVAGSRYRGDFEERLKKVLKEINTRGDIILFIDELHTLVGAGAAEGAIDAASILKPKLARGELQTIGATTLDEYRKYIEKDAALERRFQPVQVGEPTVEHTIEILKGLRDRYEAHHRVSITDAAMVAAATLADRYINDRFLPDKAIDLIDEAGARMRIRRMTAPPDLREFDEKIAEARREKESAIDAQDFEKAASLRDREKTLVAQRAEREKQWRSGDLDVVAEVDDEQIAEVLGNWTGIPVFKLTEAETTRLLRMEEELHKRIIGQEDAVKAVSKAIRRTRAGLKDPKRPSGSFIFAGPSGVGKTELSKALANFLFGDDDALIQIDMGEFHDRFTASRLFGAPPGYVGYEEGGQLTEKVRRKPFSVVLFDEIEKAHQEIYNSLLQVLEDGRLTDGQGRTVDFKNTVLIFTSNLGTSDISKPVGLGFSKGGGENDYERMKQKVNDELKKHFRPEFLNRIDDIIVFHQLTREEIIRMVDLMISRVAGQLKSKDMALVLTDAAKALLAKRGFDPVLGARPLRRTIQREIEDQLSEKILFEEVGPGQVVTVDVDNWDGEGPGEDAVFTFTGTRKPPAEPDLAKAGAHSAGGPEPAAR
ClpC1-NTD substrate, M. tuberculosis ClpC1P1P2, sequence (P9WPC3 whole entry, further chain): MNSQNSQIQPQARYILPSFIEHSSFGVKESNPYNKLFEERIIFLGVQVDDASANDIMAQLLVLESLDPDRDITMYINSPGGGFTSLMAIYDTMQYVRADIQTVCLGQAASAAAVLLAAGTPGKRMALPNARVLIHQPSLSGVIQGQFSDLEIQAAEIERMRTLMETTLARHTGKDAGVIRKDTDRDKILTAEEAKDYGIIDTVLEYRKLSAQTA

[8] = type: in vitro ADME, Mice; conditions: clearance in microsomes
Summary of the method: as §1

[9] = system: Mtb H37Rv in THP-1 macrophages; test: Intracellular MIC assay in THP-1 macrophages; type: cell-based, Mycobacterium tuberculosis; design: Emax: unit not given here
[10] = Hepatocyte stability, mice; type: in vitro ADME; conditions: mouse, pH 7.4
Summary of the method: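 Parent depletion by HPLC-MS/MS in mouse hepatocyte suspension (50% serum, ~1 million cells/mL) with 1 µM compound over up to 6 h at 37 °C. Half-lives were scaled to % Qh using the well-stirred liver model.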

Msm 700084 = test: microbe, parasite or virus in culture; type: cell-based
[11] = target: ClpC1 NTD protein (M. tuberculosis) (Mycobacterium tuberculosis, UniProt P9WPC9); test: biochemical; type: binding; conditions: SPR
ClpC1 NTD protein (M. tuberculosis), sequence (P9WPC9 1-156, looked up, natural form): as the sequence (P9WPC9 1-156, looked up, natural form) above

[12] = Microsomal stability, human; type: in vitro ADME
Summary of the method: as §1

in vitro = conditions: human
Summary of the method: (§2)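 Permeability across Caco-2 monolayers was measured in both directions, apical-to-basolateral and basolateral-to-apical, in 10^-6 cm s-1. Efflux ratio = P(B−A)/P(A−B). Intrinsic permeability is the mean of P(A−B) and P(B−A).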

Caco-2 monolayers = test: in vitro; conditions: human, Caco-2
Summary of the method: as §2

[13] = Mycobacterium tuberculosis, mean, n = 2 well replicates
[14] = Mycobacterium tuberculosis, single well replicates
[15] = mean of the measurements, read-out: 1-Dmax, Mean
[16] = mean of the measurements, read-out: DC50, Mean

## NNC(=O)c1ccncc1 [Isoniazid]
Mtb (moxR) FNDR-M1; M. tuberculosis FNDR-M1, single well replicates
  MIC: 0.11 µM (≈ 0.0151 µg/mL)
Mtb (moxR) FNDR-M1; Mycobacterium tuberculosis, M. tuberculosis FNDR-M1, single well replicates
  MIC: 0.11 µM (≈ 0.0151 µg/mL)
Mtb (moxR) FNDR-M1; Mycobacterium tuberculosis, Mtb (moxR) FNDR-M1, mean ± SD, n = 3 well replicates
  MIC: 0.1 µM (≈ 0.0137 µg/mL)
Mtb # 11291; [13]
  MIC: 3.6 µM and 0.5 µg/mL
Mtb # 11291; [14]
  MIC: 3.65 µM and 0.5 µg/mL
Mtb # 11291; single well replicates
  MIC Mtb # 11291: 0.5 µg/mL (≈ 3.65 µM)
  MIC: 3.65 µM (≈ 0.501 µg/mL)
[1]; M. tuberculosis ATCC 35822, single well replicates
  MIC: >232.22 µM
[1]; Mycobacterium tuberculosis, ATCC35822, M. tuberculosis ATCC 35822, single well replicates
  MIC: > 232 µM
[1]; Mycobacterium tuberculosis, ATCC35822, Mtb (katG del) ATCC 35822, mean ± SD, n = 3 well replicates
  MIC: > 232 µM
Mtb # 8673; [13]
  MIC: 467 µM and 64 µg/mL
Mtb # 8673; [14]
  MIC: 467 µM and 64 µg/mL
Mtb # 8673; single well replicates
  MIC: 466.68 µM (≈ 64 µg/mL)
  MIC Mtb # 8673: 64 µg/mL (≈ 467 µM)
[2]; M. tuberculosis H37Rv 27294, single well replicates, read-out: MIC
  MIC: 0.23 µM (≈ 0.0315 µg/mL)
[2]; Mycobacterium tuberculosis, M. tuberculosis H37Rv 27294, single well replicates, read-out: MIC
  MIC: 0.23 µM (≈ 0.0315 µg/mL)
[2]; Mycobacterium tuberculosis, Mtb H37Rv, mean ± SD, n = 3 well replicates, read-out: MIC
  MIC: 0.2 µM (≈ 0.0274 µg/mL)

## CO[C@H](c1ccccc1)[C@@H]1NC(=O)[C@H](C)NC(=O)[C@H](C[C@@H](C)CO)N(C)C(=O)[C@H](Cc2cn(C)c3ccccc23)NC(=O)[C@H](Cc2cn(CCOCCOCCn3cc(C[C@@H]4NC(=O)[C@H](CC(C)C)N(C)C(=O)[C@H](C(C)C)NC(=O)[C@H]([C@H](OC)c5ccccc5)NC(=O)[C@H](C)NC(=O)[C@H](C[C@@H](C)CO)N(C)C(=O)[C@H](Cc5cn(C)c6ccccc56)NC4=O)nn3)nn2)NC(=O)[C@H](CC(C)C)N(C)C(=O)[C@H](C(C)C)NC1=O [Compound 11]
[3]
  Hepatocyte Human: 12 %Qh
  Hepatocyte Stability Human QH: 12.386%
Msm 607; Mycolicibacterium smegmatis, 607, read-out: MIC Msm 607
  MIC: 1.6 µM (≈ 3.24 µg/mL)
Msm 607; Mycolicibacterium smegmatis, 607, read-out: Msm 607 MIC, single determinations
  MIC: 1.56 µM (≈ 3.16 µg/mL)
[4]; Measurement 1-6
  1-Dmax, single measurements: 84.8% and 87.6% and 91.1%
[4]; Measurement 1-6, read-out: 1-Dmax, single measurements
  1-Dmax (percent substrate remaining at maximal degradation): 85.6%
[4]; Measurement 1-6, read-out: DC50, single measurements
  DC50: 7.4 µM and 6.1 µM and 5 µM and 3.9 µM
[4]; [15]
  1-Dmax (percent substrate remaining at maximal degradation): 87%
[4]; [16]
  DC50: 5.6 µM
[5]
  Hepatocyte Rat: 6 %Qh
  Hepatocyte Stability Rat QH: 6.192%
[6]; Rat
  Microsomal Stability Rat QH: <23.1%
[6]; clearance in microsomes
  Microsomal Stability Rat: < 23 %Qh
[7]; Measurement 1-4
  1-Dmax, single measurements: 69.6%
[7]; Measurement 1-4, read-out: 1-Dmax, single measurements
  1-Dmax (percent substrate remaining at maximal degradation): 77.4%
[7]; Measurement 1-4, read-out: DC50, single measurements
  DC50: 4.7 µM and 5.4 µM
[7]; [15]
  1-Dmax (percent substrate remaining at maximal degradation): 74%
[7]; [16]
  DC50: 5.1 µM
[8]
  Microsomal Stability Mice: < 24 %Qh
[9]
  Emax: 0.51
[10]
  Hepatocyte Mice: 15 %Qh
Msm 700084; Mycolicibacterium smegmatis, 700084, single determinations, read-out: Msm 700084 MIC
  MIC: 1.56 µM (≈ 3.16 µg/mL)
Msm 700084; Mycolicibacterium smegmatis, 700084, read-out: MIC Msm 700084
  MIC: 1.6 µM (≈ 3.24 µg/mL)
[11]; individual measurements (source data), read-out: KD ClpC1-NTD
  Kd: 0.000306 µM and 0.000313 µM and 0.00072 µM and 0.000499 µM and 0.000412 µM and 0.000253 µM and 0.000262 µM
[11]; single independent measurements
  koff ClpC1-NTD: 0.0009 s⁻¹ and 0.0004 s⁻¹
[11]; read-out: ClpC1-NTD KD Mean ± SD
  Kd: 0.0004 ± 0.0002 µM
[12]; Human
  Microsomal Stability Human QH: <24.4%
[12]; clearance in microsomes
  Microsomal Stability Human: < 24 %Qh
[2]; Mycobacterium tuberculosis, M. tuberculosis H37Rv strain, read-out: MIC Mtb H37Rv Mean ± SD
  MIC: 0.1 µM (≈ 0.203 µg/mL)
[2]; Mycobacterium tuberculosis, Mtb H37Rv (Supplementary Table 2), read-out: MIC Mtb
  MIC: 0.1 µM (≈ 0.203 µg/mL)
[2]; Mycobacterium tuberculosis, individual measurements (source data), read-out: Mtb MIC
  MIC: 0.097 µM (≈ 0.197 µg/mL)
[2]; Mycobacterium tuberculosis, single determinations, read-out: Mtb MIC
  MIC: 0.097 µM (≈ 0.197 µg/mL)
[2]; individual measurements (source data), read-out: Mtb MIC
  MIC: 0.097 µM (≈ 0.197 µg/mL)
In vitro; Caco-2
  efflux ratio: 2.6
In vitro; Caco-2, CACO permeability PEBA
  Papp B→A: 0.36 ×10⁻⁶ cm/s
In vitro; Caco-2, Caco-2 permeability P (A-B)
  Papp A→B: 1.6 ×10⁻⁶ cm/s
In vitro; Caco-2, Caco-2 permeability P (B-A)
  Papp B→A: 4.2 ×10⁻⁶ cm/s
Caco-2 monolayers
  Caco-2 Int. Perm: 2.9
